Where two headings read alike, the source gives them in different places.
Legend:
[1] = tested on: intact hearts from male Sprague-Dawley rats; experiment: Langendorf isolated perfused heart, simulated ischemia 20 minutes then reoxygenation; design: species or system rat; conditions: for % fibr.: isolated rat hearts, 10 min drug treatment, 20 min ischemia; for # fibrillating: number of hearts fibrillating out of Total #
Excerpt: The tests carried out by Dr. Rodgers used a widely-used protocol known as a "Langendorf" preparation, which involves removing intact hearts from sacrificed lab animals (male Sprague-Dawley rats were used), and perfusing the hearts with liquids containing controlled quantities (or deficits) of oxygen and glucose for fixed periods of time. […] The left atrium is filled at 15 cm H2 O pressure, and the left ventricle ejects into a buffer-filled column against a pressure which equates to 72 mm Hg, except during ischemic periods. The perfusate was Krebs-Henseleit buffer with HCO3 (25 mM), Ca^++ (2.2 mM), and glucose (10 mM). […] Pefusate and ambient temperatures were held at 37° C. and the hearts were allowed to beat spontaneously.
Following stabilization and treatment, the hearts were subjected to simulated ischemia for 20 minutes; no oxygen was added to the perfusate during this period. When the ischemic period ended, oxygen was again added to the perfusion buffer, and the following parameters were measured over a period of 10 minutes:
LVPP--left ventricular pulse pressures (time-dependent pressures, calculated as peak pressure minus diastolic pressure, in mm Hg, millimeters of mercury column)
LVEDP--left ventricular end diastolic pressure (i.e, time-dependent pressures as the ventricle relaxed during diastolic filling, in mm Hg)
CFR--coronary flow rate (mL/min)
HR--spontaneous heartbeat rate (beats/min)
ECG--electrocardiogram (surface potential, in mV)

[2] = mammalian bloodstream; cited from earlier work
[3] = target: adenosine deaminase (ADA); conditions: read-out: Ki value (ADA); background statement; cited from earlier work
[4] = target: T1, calf intestinal ADA (Type III, Sigma Chemical Company) (Bos taurus, UniProt P56658); experiment: Testing for ADA inhibition, direct spectrophotometric assay at 265 nm; type: biochemical; conditions: for Ki: calf intestinal ADA, 30° C.; for inhibition of ADA activity (in words): tested as in Example 2
T1 construct: purchased Sigma Chemical Company Type III; host or cells: calf intestine
T1 sequence (P56658 1-363): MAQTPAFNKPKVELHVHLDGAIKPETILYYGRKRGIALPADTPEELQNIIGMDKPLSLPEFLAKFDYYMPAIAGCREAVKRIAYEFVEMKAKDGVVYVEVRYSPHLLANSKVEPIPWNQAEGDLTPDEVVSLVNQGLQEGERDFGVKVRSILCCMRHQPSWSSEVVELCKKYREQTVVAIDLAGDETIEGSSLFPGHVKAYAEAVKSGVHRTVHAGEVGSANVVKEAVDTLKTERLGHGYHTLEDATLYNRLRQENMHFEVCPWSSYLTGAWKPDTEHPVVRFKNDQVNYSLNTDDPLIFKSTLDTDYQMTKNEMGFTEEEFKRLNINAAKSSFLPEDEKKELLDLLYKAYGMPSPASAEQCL
Procedure: Compounds [10] (the 9-hydroxy analog), [23] (the 8-hydroxy analog), and [14] (the 8,9-dihydroxy analog) were tested for ADA inhibition activity, using calf intestinal ADA (Type III, Sigma Chemical Company) measured at 30° C. by direct spectrophotometric assays at 265 nm, as described in Harriman et al 1992.
Several of the analogs described in Example 3 were tested for inhibition of the adenosine deaminase (ADA) enzyme, using the procedures described in Example 2.

[5] = animals; cited from earlier work
[6] = isolated rat hearts after ischemia
[7] = read-out: Ki value (ADA inhibition)
[8] = read-out: Ki values (ADA inhibition)

SMILES	% fibr. [1] [%]	# fibrillating [1]	Ki [4, 7] [nM]	Ki [4, 8] [nM]	inhibition of ADA activity (in words) [4]	also measured
CCCCCC[C@H]([C@H](C)O)n1cnc2c(N)ncnc21 (relative stereo) [EHNA, erythro-hydroxynonyladenine]	14	1				LVPP (left ventricular pulse pressure) after ischemia [1, 6]: moderate increase; coronary flow rate after ischemia [1, 6]: moderate increase; incidence of fibrillation (in words) [1, 6]: reduced the incidence of fibrillation; metabolism and clearance from bloodstream [2]: metabolized and cleared from the mammalian bloodstream fairly rapidly; Ki [3]: ~4 nM
C[C@H](O)[C@@H](CCCCC(O)CO)n1cnc2c(N)ncnc21 (single isomer, unassigned) [Compound 14]			6	6	effective inhibitor of ADA activity	
CC(O)CCCC[C@H]([C@H](C)O)n1cnc2c(N)ncnc21 (single isomer, unassigned) [Compound 23]			11	11	shown to inhibit ADA activity	
C[C@H](O)[C@@H](CCCCCCO)n1cnc2c(N)ncnc21 [Compound 10]	11	1	3.4	3.4	effective inhibitor of ADA activity	LVPP (left ventricular pulse pressure) after ischemia [1, 6]: moderate increase; coronary flow rate after ischemia [1, 6]: moderate increase; incidence of fibrillation (in words) [1, 6]: reduced the incidence of fibrillation; LVEDP (left ventricular end diastolic pressure), protection against muscle stiffening ([1]; isolated rat hearts after ischemia, compared with EHNA): significantly higher level of protection against muscle stiffening than unmodified EHNA
C[C@H](O)[C@@H](CCCCCCOC(=O)c1ccccc1)n1cnc2c(N)ncnc21 [Compound 25, 9-[9-Benzoyloxy-2(S)-hydroxy-3(R)-nonyl]adenine]					potency in the desired range	
C[C@H](O)[C@@H](CCCCCCCl)n1cnc2c(N)ncnc21 [Compound 29, 9-[9-chloro-2(S)-hydroxy-3(R)-nonyl]adenine]				3.7	potency in the desired range	
COC(=O)CCCCC[C@H]([C@H](C)O)n1cnc2c(N)ncnc21 [Compound 31]				5	potency in the desired range	
C=CCCCC[C@H]([C@H](C)O)n1cnc2c(N)ncnc21 [Compound 32, 9-[2(S)-hydroxy-3(R)-non-8-enyl]adenine]					potency in the desired range	Ki ([4]; Ki values (ADA inhibition)): 2.5 nM
CCN(CC)C(=S)SSC(=S)N(CC)CC [Disulfiram, disulfiram]	40	2				
OC[C@H]1O[C@@H](n2cnc3c2NC=NC[C@H]3O)C[C@@H]1O [dCF, deoxycoformycin]						toxic side effects [5]: serious and unpredictable toxic side effects in some animals
